Source: PMC9459403, “New inhibitors of cathepsin V impair tumor cell proliferation and elastin degradation and increase immune cell cytotoxicity” (Computational and Structural Biotechnology Journal, 2022)
“Also recorded” adds a separate entry of the source.

How the values were obtained:
MCF7 cells = experiment: Proliferation assay (CFSE-labeled cells, flow cytometry); format: cell-based, human; details: 72 h
Procedure: To assess the effect of cathepsin V inhibitors on cell proliferation, MCF7 cells were fluorescently labeled with carboxyfluorescein succinimidyl ester (CFSE; ImmunoChemistry Technologies, Bloomington, MN, USA) in PBS for 15 min at room temperature according to the manufacturer’s instructions. Cells were washed with PBS, resuspended in complete medium, seeded (at 4 × 10^4 cells/well) into 24-well plates, and allowed to adhere overnight. Cells were then treated with the following inhibitors: compound 7 (10 μM), E-64d (10 μM), CLIK-148 (1 μM), LHVS (10 nM), pepstatin (20 μM), their combinations, or DMSO (0.1 %) in 500 μL of medium for 72 h at 37 °C. To prepare cells for flow cytometry, cells were detached and transferred to round-bottomed polystyrene tubes and washed with PBS. Before measurement, 7-aminoactinomycin D (7-AAD; ImmunoChemistry Technologies, Bloomington, MN, USA) was added according to the manufacturer’s instructions to exclude dead cells. Therefore, the green fluorescence arising from CFSE was monitored only for viable cells. The measurement was performed using a FACSCalibur instrument (BD Biosciences, San Jose, CA, USA).

[1] = tested on: cystatin F in U-937 cells; experiment: Western blot of cystatin F dimer-to-monomer ratio; format: cell-based, human; details: U-937 cell lysates, 6 h treatment, 10 and 20 μM, vs control
Procedure: Cells were treated with E-64d or compound 7 (both at 10 µM or 20 µM) for 6 h. After treatment, whole-cell lysates were prepared in RIPA buffer supplemented with cOmplete™ Protease Inhibitor Cocktail (Roche, Basel, Switzerland) and centrifuged at 16 000 × g for 20 min at 4 °C. Total protein concentration was determined using the DC assay (Biorad, Hercules, CA, USA). Proteins were separated by non-reducing SDS-PAGE and transferred to a nitrocellulose membrane using the TransBlot Turbo System (Biorad). After blocking, the membranes were incubated with primary antibodies overnight at 4 °C and with secondary antibodies for 1 h at room temperature. Bands were visualized using Clarity Max Western ECL substrate (Biorad), and protein loading was checked using Stain Free technology (Biorad). Images were acquired using the ChemiDoc ML Imaging System (Biorad), and quantification analysis was performed using Image Lab software (Biorad).
The following primary antibodies were used: rabbit anti-cystatin F (1:375, HPA040442, Sigma), goat anti-cathepsin V (1:200, AF 1080, R&D, USA), and mouse anti-GAPDH (1:3000, 10494-I-AP, Proteintech, USA). […]

[2] = molecular target: T1, human recombinant cathepsin L (Homo sapiens, UniProt P07711); experiment: Determination of relative inhibition, substrate Z-Phe-Arg-AMC; format: biochemical; details: inhibitor 50 μM; substrate 2 μM; mean ± SD (n = 2); read-out: Cathepsin L Ri (%) relative inhibition
T1 construct: made in house; host or cells: Escherichia coli
Outline: (§1)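 Cathepsin V (Pichia-expressed, 2.5 ng/mL) or L (E. coli, 0.02 nM) preactivated 5 min at 37 °C in pH 5.5 acetate with 5 mM cysteine, 1.5 mM EDTA, 0.1% PEG. Inhibitor at 50 μM, Z-Phe-Arg-AMC 2 μM, 5% DMSO, 0.01% Triton X-100; fluorescence (380/460 nm) rates give relative inhibition = 100(1-vi/vo).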

Cathepsin V [3] = molecular target: T2, Cathepsin V (Homo sapiens, UniProt O60911); experiment: as above; format: biochemical; details: inhibitor 50 μM; substrate 2 μM; mean ± SD (n = 2); read-out: Cathepsin V Ri (%) relative inhibition
T2 construct: made in house; host or cells: Pichia pastoris
Outline: as §1

Cathepsin V [4] = molecular target: T2, Cathepsin V; experiment: Determination of binding reversibility (dilution method); format: biochemical; details: inhibitor 100 μM, cathepsin V 500 ng/ml
Procedure: Binding reversibility was determined according to the dilution method, which measures the recovery of enzymatic activity after rapid dilution of the enzyme-inhibitor complex. Cathepsin V (500 ng/ml) was incubated in the assay buffer with the inhibitor (100 μM). Half of the reaction mixture was immediately diluted 100-fold with the assay buffer and added to the wells of a black microplate containing 5 μL of substrate (at a final concentration of 2 μM), and the activity was measured. The other half of the reaction mixture was incubated for 2 h before it was diluted 100-fold, and then the activity was measured. The assay was performed in triplicates and repeated at least two times.

[5] = tested on: U-937-derived macrophages; experiment: Intracellular elastin-FITC degradation; format: cell-based, human
Procedure: To evaluate the effect of the inhibitors on the elastolytic activity of cathepsin V, we assessed the intracellular degradation of elastin-FITC, a soluble bovine neck ligament elastin that is heavily labeled with FITC such that the fluorescence of the conjugate is quenched. Upon proteolysis, fluorescence is recovered and can be detected. U-937 cells, differentiated into macrophage-like cells, were seeded (at 1 × 10^5 cells/well) into 24-well plates with 500 μL of medium supplemented with 50 nM PMA. Inhibitors or DMSO (0.1 %) and elastin-FITC (10 μg/mL; AnaSpec, Fermont, CA, USA) were added to the medium and incubated for 24 h at 37 °C. Cells were detached and washed with PBS, and propidium iodide (BD Bioscience) was added to exclude dead cells. Therefore, green fluorescence arising from elastin-FITC degradation was monitored only for viable cells. The measurement was performed using a FACSCalibur instrument (BD Biosciences).

T2 sequence (O60911 114-334): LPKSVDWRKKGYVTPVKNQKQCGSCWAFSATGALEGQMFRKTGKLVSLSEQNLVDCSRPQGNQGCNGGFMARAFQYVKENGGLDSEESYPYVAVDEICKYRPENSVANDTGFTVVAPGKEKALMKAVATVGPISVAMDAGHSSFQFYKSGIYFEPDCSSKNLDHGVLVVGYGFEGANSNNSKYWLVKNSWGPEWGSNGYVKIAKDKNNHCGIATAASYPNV
T1 sequence (P07711 114-333): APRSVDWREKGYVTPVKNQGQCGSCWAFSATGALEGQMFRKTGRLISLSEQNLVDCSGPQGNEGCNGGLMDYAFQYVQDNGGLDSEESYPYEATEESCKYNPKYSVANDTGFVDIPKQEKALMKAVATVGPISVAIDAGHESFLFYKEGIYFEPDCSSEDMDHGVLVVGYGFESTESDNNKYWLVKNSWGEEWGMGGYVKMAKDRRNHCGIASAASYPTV

O=C(NCc1cccc2ccccc12)NCC1CCN(C(=O)Oc2ccccc2)CC1 [Compound 7, Phenyl 4-((3-(naphthalen-1-ylmethyl)ureido)methyl)piperidine-1-carboxylate]
increase of fluorescence intensity of CFSE-labeled cells compared to control cells (MCF7 cells; 10 μM, higher CFSE = less proliferation): 50.6 ± 5.1%
increase of relative CFSE fluorescence intensity, co-treatment with CLIK-148, LHVS, and compound 7 together (MCF7 cells; compound 7 10 μM + CLIK-148 1 μM + LHVS 10 nM): 46.1 ± 5.2%
cystatin F dimer-to-monomer ratio [1]: even further increased
inhibition at 50 µM [2]: 12.1 ± 1.8%
inhibition at 50 µM (Cathepsin V [3]): > 20%
binding reversibility: cathepsin V activity after 2 h incubation and 100-fold rapid dilution (Cathepsin V [4]): reversible; also recorded: restored
decrease of elastin-FITC degradation ([5]; 10 μM, 24 h, vs DMSO): 9.5 ± 1.6%
elastin-FITC degradation, compound 7 added to CLIK-148 ([5]; compound 7 10 μM + CLIK-148, vs control cells and CLIK-148 alone): significantly decreased
